# Source: publication PMC12332667, “Role of Structural Modifications in Peptidomimetic Compounds as Potential Antimicrobial Agents against Staphylococcus aureus and Streptococcus pyogenes: Balancing Bioavailability, Safety, and Antimicrobial Activity” (ACS Omega, 2025)
# Tests used:
# S. intemrdius c.i. = assay: MIC/MBC broth microdilution, S. intermedius; format: cell-based, Staphylococcus intermedius
# Protocol: (§1) S. aureus (ATCC 29213),S. pyogenes (ATCC 19615),Streptococcus agalactiae (ATCC 27956),Escherichia coli (ATCC 25922),Proteus vulgaris (ATCC 6896),K. pneumoniae (ATCC 700603) andP. aeruginosa (ATCC 10145) reference strains, as well asStaphylococcus cohnii, Enterococcus faecalis, Staphylococcus schleiferi, Staphylococcus intermedius and Streptococcus mutans clinical isolates, were used to test the antibacterial activity of the peptidomimetics. Bacteria were aerobically cultured for 18 h at 37 °C in plates with sterilized brain heart infusion (BHI) broth (Sigma-Aldrich, USA) media mixed with bacteriological agar (Sigma-Aldrich, USA) using the streak plate method. After 18 h, BHI broth was inoculated to 0.5 on the McFarland scale and diluted to approximately 10^5 CFU/mL. To achieve a final stock concentration of 1024 μg/mL, the peptidomimetics were dissolved in sterile water, and 5–10% of absolute ethanol or dimethyl sulfoxide (DMSO) was added. The antibacterial activities were determined by using the standard broth microdilution method of the National Committee for Clinical Laboratory Standards. The process involved adding serially diluted peptidomimetics to consecutive wells of a 96-well microtiter plate (Brand, Germany) holding media with microorganisms. The inoculated plates treated with peptides were then placed in an incubator at 37 °C for 18 h. The MIC value was determined as the lowest concentration of peptidomimetic at which there was no obvious growth (equal or more than 90% of the untreated sample). […] The lowest concentration yielding growth in no more than 3 colonies, corresponding to at least a 99.9% kill rate, was taken as MBC. Each biological replicate included control wells with the addition of water, DMSO, and ethanol as respective solvent controls. All experiments were conducted with consistent adherence to growth and sterility controls and were performed at least in technical triplicate with three biological repeats.
# P. aeruginosa ATCC 10145 = assay: MIC/MBC broth microdilution, P. aeruginosa; format: cell-based
# Protocol: as §1
# [1] = tested on: immortalized human HaCaT keratinocytes; assay: XTT cell proliferation assay, keratinocytes; format: cell-based
# Protocol: (§2) In our study, we used two distinct cell types: immortalized human HaCaT keratinocytes (DKFZ, Heidelberg, Germany) and a human dermal fibroblast cell line (46BR.1N). […] Cultures were maintained in a humidified atmosphere with 5% CO2 at 37 °C in 25 cm^2 culture flasks with the medium replenished every 2 days. The condition of the cells was monitored using optical microscopy. […] After 24 h of incubation, the medium was replaced with serum-free HG-DMEM containing appropriate concentrations of peptidomimetics. All solutions used in the experiments were prepared with double-distilled water or with the addition of ethanol under sterile conditions to ensure compatibility with the conditions of the bacteriological assay. For 72 h of incubation, half of the medium was replaced with fresh medium after 48 h, and cells were stimulated with peptides for a second time. The XTT cell proliferation assay was then performed according to the manufacturer’s instructions (Roche, Switzerland). Cells were treated with the peptides for either 48 or 72 h, followed by the addition of XTT reagent, and the plates were then incubated at 37 °C in a 5% CO2 environment for 4 h. Plate readings were taken using a standard plate reader at a wavelength of 490 nm (OD = 490 nm). […] Statistical significance was determined with a Mann–Whitney U test with statistical significance p ≤ 0.05. Analysis was performed with Statistica software, and graphs were prepared in GraphPad Prism.
# fibroblasts (46BR.1N) = assay: LDH cytotoxicity test, fibroblasts; format: cell-based; conditions: 48 h
# Protocol: (§3) In our study, we used two distinct cell types: immortalized human HaCaT keratinocytes (DKFZ, Heidelberg, Germany) and a human dermal fibroblast cell line (46BR.1N). […] Cultures were maintained in a humidified atmosphere with 5% CO2 at 37 °C in 25 cm^2 culture flasks with the medium replenished every 2 days. The condition of the cells was monitored using optical microscopy.
# (§4) Cell death in immortalized human keratinocytes (HaCaT) and fibroblasts (46BR.1N) was measured by quantifying the lactate dehydrogenase (LDH) activity using a commercial kit (Roche, Switzerland). Cells were seeded in 96-well plates at a density of 5000 cells per well in DMEM high glucose medium supplemented with 10% FBS. After 24 h of incubation, the medium was replaced with serum-free medium containing various concentrations of peptidomimetics (50, 100, and 150 μg/mL). After 48 h, supernatants were collected for LDH analysis. Plate readings were taken spectrophotometrically using a 450 nm wavelength. Cell death measurements were normalized to an untreated control (0%), with 1% Triton X-100 detergent used as a positive control to induce maximum LDH release, indicating maximal cytotoxicity. Statistical significance was determined with a Mann–Whitney U test with a statistical significance p ≤ 0.05. Analysis was performed with Statistica software (Krakow, Poland) and graphs were prepared in GraphPad Prism (Boston, USA).
# S. aureus ATCC 43300 = assay: MIC/MBC broth microdilution, S. aureus; format: cell-based, Staphylococcus aureus; conditions: for MBC / MIC: S. aureus
# S. cohnii c.i. = assay: MIC/MBC broth microdilution, S. cohnii; format: cell-based, Staphylococcus cohnii
# Protocol: as §1
# [2] = tested on: K. pneumoniae ATCC 700603; assay: MIC/MBC broth microdilution, K. pneumoniae; format: cell-based
# Protocol: as §1
# [3] = tested on: immortalized human keratinocytes (HaCaT); assay: LDH cytotoxicity test, keratinocytes; format: cell-based; conditions: 48 h
# Protocol: as §3, §4
# [4] = tested on: human dermal fibroblast cell line (46BR.1N); assay: XTT cell proliferation assay, fibroblasts; format: cell-based
# Protocol: as §2
# S. mutans c.i. = assay: MIC/MBC broth microdilution, S. mutans; format: cell-based, Streptococcus mutans
# Protocol: as §1
# E. coli ATCC 25922 = assay: MIC/MBC broth microdilution, E. coli; format: cell-based, Escherichia coli
# Protocol: as §1
# S. pyogenes ATCC 19615 = assay: MIC/MBC broth microdilution, S. pyogenes; format: cell-based, Streptococcus pyogenes; conditions: S. pyogenes
# Protocol: as §1
# S. agalactiae ATCC 27956 = assay: MIC/MBC broth microdilution, S. agalactiae; format: cell-based, Streptococcus agalactiae; conditions: S. agalactiae
# Protocol: as §1
# E. faecalis c.i. = assay: MIC/MBC broth microdilution, E. faecalis; format: cell-based, Enterococcus faecalis
# Protocol: as §1
# P. vulgaris ATCC 6896 = assay: MIC/MBC broth microdilution, P. vulgaris; format: cell-based, Proteus vulgaris
# Protocol: as §1
# S. schleiferi c.i. = assay: MIC/MBC broth microdilution, S. schleiferi; format: cell-based, Staphylococcus schleiferi
# Protocol: as §1
# [5] = XTT, 48 and 72 h, 0.01–150 μg/mL
# [6] = up to 150 μg/mL, A-193 and A-179 after 48 h
smiles,measurement,setting,value
CC(C)C[C@H](NC(=O)[C@H](CCCNC(=N)N)NC(=O)OCc1ccccc1)C(=O)N[C@H](CNC(=O)C(=Cc1ccccc1)c1ccccc1)C(C)C [Compound A-164],MBC,S. intemrdius c.i.; H2O,32 µg/mL
same,MIC,S. intemrdius c.i.; H2O,16 µg/mL
same,MBC,S. intemrdius c.i.; water additive DMSO,8 µg/mL
same,MIC,S. intemrdius c.i.; water additive DMSO,4 µg/mL
same,MBC,S. intemrdius c.i.; water additive EtOH,16 µg/mL
same,MIC,S. intemrdius c.i.; water additive EtOH,8 µg/mL
same,MIC,P. aeruginosa ATCC 10145; H2O,> 512 µg/mL
same,MIC,P. aeruginosa ATCC 10145; water additive DMSO,> 512 µg/mL
same,MIC,P. aeruginosa ATCC 10145; water additive EtOH,> 512 µg/mL
same,proliferation relative to control at 50 μg/mL,"[1]; XTT, 50 μg/mL",50%
same,"effect on proliferation, in words",[1]; [5],negative impact
same,antiproliferative effect (decrease vs control),[1]; [6],up to 50%
same,"cytotoxicity (LDH), in words",fibroblasts (46BR.1N); 50-150 μg/mL,cytotoxic effects across all of the tested concentrations
same,concentration at which cytotoxic effect starts,fibroblasts (46BR.1N); LDH,50 µg/mL
same,MBC,S. aureus ATCC 43300; H2O,16 µg/mL
same,MIC,S. aureus ATCC 43300; H2O,8 µg/mL
same,MBC,S. aureus ATCC 43300; water additive DMSO,16 µg/mL
same,MIC,S. aureus ATCC 43300; water additive DMSO,8 µg/mL
same,MBC,S. aureus ATCC 43300; water additive EtOH,16 µg/mL
same,MIC,S. aureus ATCC 43300; water additive EtOH,8 µg/mL
same,MIC value for S. aureus,S. aureus ATCC 43300; additive not stated,8 µg/mL
same,MBC,S. cohnii c.i.; water additive DMSO,32 µg/mL
same,MIC,S. cohnii c.i.; water additive DMSO,16 µg/mL
same,MIC,S. cohnii c.i.; water additive EtOH,32 µg/mL
same,MIC,[2]; H2O,> 512 µg/mL
same,MIC,[2]; water additive DMSO,> 512 µg/mL
same,MIC,[2]; water additive EtOH,> 512 µg/mL
same,"cytotoxicity (LDH), in words",[3]; 50-150 μg/mL,cytotoxic effects across all of the tested concentrations
same,concentration at which cytotoxic effect starts,[3]; LDH,50 µg/mL
same,viability,"[4]; 48 h, 50, 100 and 150 μg/mL",over 20%
same,proliferation relative to control at 50 μg/mL,"[4]; XTT, 50 μg/mL",50%
same,"effect on proliferation, in words",[4]; [5],negative impact
same,antiproliferative effect (decrease vs control),[4]; [6],up to 50%
same,MIC,S. mutans c.i.; H2O,> 512 µg/mL
same,MIC,S. mutans c.i.; water additive DMSO,> 512 µg/mL
same,MIC,S. mutans c.i.; water additive EtOH,> 512 µg/mL
same,MIC,E. coli ATCC 25922; H2O,> 512 µg/mL
same,MIC,E. coli ATCC 25922; water additive DMSO,> 512 µg/mL
same,MIC,E. coli ATCC 25922; water additive EtOH,> 512 µg/mL
same,MBC,S. pyogenes ATCC 19615; H2O,16 µg/mL
same,MIC,S. pyogenes ATCC 19615; H2O,8 µg/mL
same,MBC,S. pyogenes ATCC 19615; water additive DMSO,16 µg/mL
same,MIC,S. pyogenes ATCC 19615; water additive DMSO,8 µg/mL
same,MBC,S. pyogenes ATCC 19615; water additive EtOH,8 µg/mL
same,MIC,S. pyogenes ATCC 19615; water additive EtOH,4 µg/mL
same,MBC,S. agalactiae ATCC 27956; H2O,16 µg/mL
same,MIC,S. agalactiae ATCC 27956; H2O,8 µg/mL
same,MBC,S. agalactiae ATCC 27956; water additive DMSO,32 µg/mL
same,MIC,S. agalactiae ATCC 27956; water additive DMSO,16 µg/mL
same,MBC,S. agalactiae ATCC 27956; water additive EtOH,8 µg/mL
same,MIC,S. agalactiae ATCC 27956; water additive EtOH,4 µg/mL
same,MIC,E. faecalis c.i.; H2O,32 µg/mL
same,MBC,E. faecalis c.i.; water additive DMSO,32 µg/mL
same,MIC,E. faecalis c.i.; water additive DMSO,16 µg/mL
same,MIC,E. faecalis c.i.; water additive EtOH,32 µg/mL
same,MIC,P. vulgaris ATCC 6896; H2O,> 512 µg/mL
same,MIC,P. vulgaris ATCC 6896; water additive DMSO,> 512 µg/mL
same,MIC,P. vulgaris ATCC 6896; water additive EtOH,> 512 µg/mL
same,MBC,S. schleiferi c.i.; H2O,16 µg/mL
same,MIC,S. schleiferi c.i.; H2O,8 µg/mL
same,MBC,S. schleiferi c.i.; water additive DMSO,32 µg/mL
same,MIC,S. schleiferi c.i.; water additive DMSO,16 µg/mL
same,MBC,S. schleiferi c.i.; water additive EtOH,8 µg/mL
same,MIC,S. schleiferi c.i.; water additive EtOH,4 µg/mL
